Drawing on PMC3813303 (Biochemistry, 2013), this text covers Km for one compound.

The target in this test is T1, Acel0264 (Acidothermus cellulolyticus, UniProt A0LRH8).
T1 sequence (A0LRH8 1-356): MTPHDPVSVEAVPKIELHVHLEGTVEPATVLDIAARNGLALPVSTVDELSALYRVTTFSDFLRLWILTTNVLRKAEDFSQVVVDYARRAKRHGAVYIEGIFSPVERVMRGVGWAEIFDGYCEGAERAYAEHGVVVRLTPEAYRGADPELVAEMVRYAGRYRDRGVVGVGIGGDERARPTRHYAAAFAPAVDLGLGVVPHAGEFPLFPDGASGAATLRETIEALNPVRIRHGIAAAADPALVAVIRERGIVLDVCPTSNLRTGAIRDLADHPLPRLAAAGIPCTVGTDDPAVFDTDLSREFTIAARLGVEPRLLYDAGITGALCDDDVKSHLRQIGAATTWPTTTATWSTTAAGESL
The test can be described thus: absorbance decrease at […] nm. Type of test: biochemical. As to conditions: read-out: Acel0264 / Km; pH 7.5, 30 °C.

For the compound `CCNC(=O)[C@H]1O[C@@H](n2cnc3c(N)ncnc32)[C@H](O)[C@@H]1O` [NECA, 1-(6-Amino-9H-purin-9-yl)-1-deoxy-N-ethyl-β-D-ribofuranuronamide], the Km came out at 61 µM.
